In PMC6025150, “Synthesis, enzyme inhibitory kinetics mechanism and computational study of N-(4-methoxyphenethyl)-N-(substituted)-4-methylbenzenesulfonamides as novel therapeutic agents for Alzheimer’s disease” (PeerJ, 2018):
Several values for one entry are separate records, joined by “and”; a condition that tells them apart may be missing. Equal entries are not always repeated. Entries after “also recorded” stand apart in the source; their conditions may differ. Where two headings read alike, the source gives them in different places.

Key:
[1] = biological target: T1, acetylcholinesterase (from human erythrocytes) (Homo sapiens, UniProt P22303); test: biochemical; set-up: LogIC50 (best-fit value): unit not given here
T1 construct: acetylcholinesterase (from human erythrocytes, purchased from Sigma-Aldrich, Seoul, Korea); purchased Sigma-Aldrich, Seoul, Korea; host or cells: human erythrocytes (natural source)
T1 sequence (P22303 32-617 isoform P22303-2 limits assumed): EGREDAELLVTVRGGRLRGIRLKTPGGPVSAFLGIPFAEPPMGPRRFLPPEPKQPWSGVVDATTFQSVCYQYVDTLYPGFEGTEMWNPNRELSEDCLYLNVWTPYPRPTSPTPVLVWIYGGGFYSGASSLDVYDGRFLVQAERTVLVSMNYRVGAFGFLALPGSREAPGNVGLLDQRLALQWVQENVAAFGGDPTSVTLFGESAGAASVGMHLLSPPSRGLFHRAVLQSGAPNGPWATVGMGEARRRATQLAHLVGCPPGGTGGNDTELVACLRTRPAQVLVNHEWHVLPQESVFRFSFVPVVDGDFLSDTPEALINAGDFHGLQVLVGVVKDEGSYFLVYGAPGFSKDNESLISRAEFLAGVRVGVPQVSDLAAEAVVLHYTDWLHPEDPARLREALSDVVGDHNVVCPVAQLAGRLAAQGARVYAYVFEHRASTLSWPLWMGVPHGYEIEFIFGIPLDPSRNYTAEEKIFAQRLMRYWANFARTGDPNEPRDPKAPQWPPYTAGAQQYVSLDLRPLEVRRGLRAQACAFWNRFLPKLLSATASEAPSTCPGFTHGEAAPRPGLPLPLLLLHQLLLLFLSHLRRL
Protocol: The inhibitory activities of synthesized compounds were determined spectrophotometrically using acetylthiocholine iodide as substrate by following the method of ([Ellman et al., 1961]). Briefly, The assay solution consisted of 180 µL of 50 mM Tris-HCl buffer, pH 7.7, containing (0.1 M sodium chloride and 0.02 M magnesium chloride) and 20 µL of enzyme (AChE, EC 3.1.1.7), acetylcholinesterase (from human erythrocytes, purchased from Sigma-Aldrich, Seoul, Korea) solution (50 U per well); increasing concentrations of test compounds (10 µL) were added to the assay solution and pre incubated for 30 min at 4 °C. After that 5,5′ Dithiobis (2 nitrobenzoic acid) (0.3 mM, 20 µL) and acetylthiocholine iodide (1.8 mM, 20 µL) were added to the reaction mixture and incubated at 37 °C for 10 min, followed by the measurement of absorbance at 412 nm. For non-enzymatic reaction, the assays were carried out with a blank containing all components except acetylcholinesterase. The assay measurements were measured at 412 nm using a micro plate reader (OPTI Max Tunable; Molecular Devices, Sunnyvale, CA, USA) having a wave-length range from 340–850 nm; for 96 well plates. The reaction rates were compared and percent inhibition was calculated due to the presence of tested inhibitors. […] Each concentration was analyzed in three independent experiments run in triplicate. The IC50 values were calculated by nonlinear regression using GraphPad Prism 5.0.
The % of Inhibition of Acetylcholinesterase was calculated as following: Inhibition%=B−S∕B×100. Here, the B and S are the absorbance’s for the blank and samples.

[2] = biological target: T1, acetylcholinesterase (from human erythrocytes); test: Determination of AChE inhibition kinetics (Lineweaver-Burk and secondary plots); type: biochemical
Protocol: The reaction mixture consisted of 180 µL of 50 mM Tris-HCl buffer (pH 7.7); 10 µL of 5c at the different concentrations (0.00, 0.075 and 0.15 µM) and 20 µL enzyme AChE (50 U per well). We added 20 µL of DTNB 0.3 mM and 20 µL of ATCI substrate at the different concentrations (4, 2, 1, 0.5, 0.25 and 0.125 mM) and mixed, pre-incubated time was same as acetylcholinesterase assay. We measured the absorbance at 412 nm up to 5 min. Lineweaver-Burk plot of the inverse of velocities vs. the inverse of substrate concentration was used for assessment of the type of inhibition AChE kinetically. […] The results (change in absorbance per sec) were processed by using SoftMaxPro software.

## COc1ccc(CCN(C(C)C)S(=O)(=O)c2ccc(C)cc2)cc1 [Compound 5c, N-(4-Methoxyphenethyl)-4-methyl-N-(2-propyl)benzensulfonamide]
[1]; each of three independent experiments, Raw Data of IC50 sheet, read-out: IC50, single experiment (converted)
  IC50: 0.0424 µM and 0.108 µM
[1]; from human erythrocytes, mean ± SEM, read-out: Acetylcholinesterase IC50 ± SEM
  IC50: 0.0751 ± 0.0189 µM
[1]; log(inhibitor) vs. response fit, single run, IC50 Raw Data sheet
  LogIC50 (best-fit value): -1.584
[1]; log(inhibitor) vs. response fit, single run, unit inferred, IC50 Raw Data sheet, read-out: IC50 (best-fit value) (converted)
  IC50: 0.075 µM
[1]; mean converted to uM, Raw Data of IC50 sheet, read-out: IC50
  IC50: 0.0751 µM
[1]; mean of three experiments, Raw Data of IC50 sheet, read-out: IC50 (Mean) (converted)
  IC50: 0.0751 µM
[2]; Lineweaver-Burk plots
  type of inhibition: competitively; also recorded: competitive
[2]; compound 0.075 µM
  Slope of Lineweaver-Burk line: 1360.1
[2]; compound 0.075 µM, substrate axis value 0.25
  Vmax (1/V): 994.096
[2]; compound 0.075 µM, substrate axis value 0.5
  Vmax (1/V): 1353.4
[2]; compound 0.075 µM, substrate axis value 1
  Vmax (1/V): 2004.13
[2]; compound 0.075 µM, substrate axis value 2
  Vmax (1/V): 3323.6
[2]; compound 0.075 µM, substrate axis value 4
  Vmax (1/V): 5882.71
[2]; compound 0.075 µM, substrate axis value 8
  Vmax (1/V): 11587.8
[2]; compound 0.15 µM
  Slope of Lineweaver-Burk line: 1563.63
[2]; compound 0.15 µM, substrate axis value 0.25
  Vmax (1/V): 1136.29
[2]; compound 0.15 µM, substrate axis value 0.5
  Vmax (1/V): 1514.8
[2]; compound 0.15 µM, substrate axis value 1
  Vmax (1/V): 2227.02
[2]; compound 0.15 µM, substrate axis value 2
  Vmax (1/V): 3687.56
[2]; compound 0.15 µM, substrate axis value 4
  Vmax (1/V): 6343.71
[2]; compound 0.15 µM, substrate axis value 8
  Vmax (1/V): 13371.1
[2]; from Dixon / secondary plot of slope vs inhibitor concentration, read-out: inhibition constant Ki (EI dissociation constant)
  Ki: 2500 nM
